From patent publication US20230012368A1 (Hoffmann-La Roche Inc., priority 2018, published 2023)
Counter-ions that a name gives are not always drawn.

Each compound was assayed on Acinetobacter baumannii ATCC 17978 (assay: Antimicrobial susceptibility testing: 90% growth inhibitory concentration (IC90) determination). Conditions: 90% growth inhibitory concentration; Acinetobacter baumannii ATCC17978; Iso-Sensitest broth, OD 600 nm over 16h; read-out: ATCC17978 IC90.
Type: cell-based
How it was run: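 Compounds serially twofold diluted (e.g. 50 to 0.097 μM final) in Iso-Sensitest broth, inoculated at ~5×10^(5) CFU/ml, incubated at 35±2° C. OD600 read every 20 minutes over 16h. IC90 taken as concentration inhibiting 90% of growth during logarithmic phase.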

| Compound | IC90 |
| --- | --- |
| CCc1cc(Nc2nccn3c(-c4ccc(Oc5ncccn5)c(F)c4F)cnc23)ccc1C(=O)NCCNC(=O)[C@@H](N)CCNC(=N)N [Example 438, N-[2-[[(2S)-2-amino-4-guanidino-butanoyl]amino]ethyl]-4-[[3-(2,3-difluoro-4-pyrimidin-2-yloxy-phenyl)imidazo[1,2-a]pyrazin-8-yl]amino]-2-ethyl-benzamide; formic acid] | 550 nM |
| COc1ccc(-c2cnc3c(Nc4ccc(C(=O)N(C)CCN5CCNCC5)c(Cl)c4)nccn23)cc1F [Example 90, 2-chloro-4-((3-(3-fluoro-4-methoxyphenyl)imidazo [1,2-a]pyrazin-8-yl)amino)-N-methyl-N-(2-(piperazin-1-yl)ethyl)benzamide hydrochloride] | 230 nM |

Same assay, conditions: Acinetobacter baumannii, ATCC17978, 16 h, 90% growth inhibitory concentration; Acinetobacter baumannii ATCC17978; Iso-Sensitest broth, OD 600 nm over 16h; read-out: ATCC17978 IC90

| Compound | IC90 |
| --- | --- |
| COc1ccc(-c2cnc3c(Nc4ccc(C(=O)N(CCN5CCNCC5)CC(F)(F)F)c(C)c4)nccn23)cc1F [Example 172, 4-[[3-(3-fluoro-4-methoxyphenyl)imidazo[1,2-a]pyrazin-8-yl]amino]-2-methyl-N-(2-piperazin-1-ylethyl)-N-(2,2,2-trifluoroethyl)benzamide; hy-drochloride] | 6200 nM |
| CCc1cc(Nc2nccn3c(-c4ccc(OC)c(F)c4F)cnc23)ccc1C(=O)NCCNC(=O)[C@H](N)CCCNC(=N)N [Example 125, N-[2-[[(2R)-2-amino-5-guanidino-pentanoyl]amino]ethyl]-4-[[3-(2,3-difluoro-4-methoxy-phenyl)imidazo[1,2-a]pyrazin-8-yl]amino]-2-ethyl-benzamide formate] | 120 nM |
| Cc1cc(Nc2nccn3c(-c4ccc(OC(F)F)cc4)cnc23)ccc1C(=O)NC(CO)CN1CCOCC1 (stereo not shown) [Example 251, 4-[[3-[4-(difluoromethoxy)phenyl]im-idazo[1,2-a]pyrazin-8-yl]amino]-N-(1-hydroxy-3-morpholin-4-ylpropan-2-yl)-2-methylbenzamide] | 2700 nM |
| COc1ccc(-c2cnc3c(Nc4ccc(C(=O)N(C)CCc5ncc[nH]5)c(C)c4)nccn23)cc1F [Example 112, 4-[[3-(3-fluoro-4-methoxy-phenyl)imidazo[1,2-a]pyrazin-8-yl]amino]-N-[2-(1H-imidazol-2-yl)ethyl]-N,2-dimethyl-benzamide] | 960 nM |
| CCc1cc(Nc2nccn3c(-c4ccc(OC(F)F)c(F)c4F)cnc23)ccc1C(=O)N[C@@H](C)CNC(=O)C1CCN(CC2CNC2)CC1 (racemic) [Example 553, rac-(R)-1-(azetidin-3-ylmethyl)-N-(2-(4-((3-(4-(difluoromethoxy)-2,3-difluorophenyl)imidazo[1,2-a]pyrazin-8-yl)amino)-2-ethylbenzamido)propyl)piper-idine-4-carboxamide formate] | 260 nM |
| CCc1cc(Nc2nccn3c(-c4ccc(OC)c(F)c4F)cnc23)ccc1C(=O)NCCCNC(=O)C1CNC(=N)N1 (stereo not shown) [Example 356, N-[3-[[4-[[3-(2,3-difluoro-4-methoxyphenyl)imidazo[1,2-a]pyrazin-8-yl]amino]-2-ethylbenzoyl]amino]propyl]-2-iminoimidazolidine-4-carboxamide] | 50 nM |
| CCc1cc(Nc2nccn3c(-c4ccc(OC(F)F)c(F)c4F)cnc23)ccc1C(=O)N[C@@H](C)CNC(=O)C1CCNCC1 (racemic) [Example 552, rac-(R)-N-(2-(4-((3-(4-(difluoromethoxy)-2,3-difluorophenyl)imidazo[1,2-a]pyrazin-8-yl)amino)-2-ethylbenzamido)propyl)piper-idine-4-carboxamide formate] | 210 nM |
| COc1ccc(-c2cnc3c(Nc4ccc(C(=O)NCCN5CCNCC5)c(C)c4)nccn23)cc1F [Example 199, 4-[[3-(3-fluoro-4-methoxyphenyl)imidazo[1,2-a]pyrazin-8-yl]amino]-2-methyl-N-(2-piperazin-1-ylethyl)benzamide;hydrochlo-ride] | 420 nM |
